Measured values from US4067142A, “Echinatin glycosides and their preparation” (Kabushiki Kaisha Hayashibara Seibutsu Kagaku Kenkyujo, priority 1975, dated 1978).
Converted amounts (≈) assume the structure as drawn.

Tests used:
[1] = water solubility at 15° C; type: physicochemical; conditions: for solubility: water
[2] = test system: human lymphoblastoid cells (E.B. -3 cells, Burkitt lymphoma); assay: inhibiting action on the growth of human lymphoblastoid cells (E.B.-3, Burkitt lymphoma) in suspension culture, cell count; type: cell-based; conditions: 100 μg per ml medium, added on the fourth day of cultivation; R.P.M.I. 1640 + 30% fetal calf serum, 37° C; vs non-added culture
Method: Human lymphoblastoid cells (E.B. -3 cells, Burkitt lymphoma) were grown in suspension culture and maintained in 2 ml R.P.M.I. 1640 medium (manufactured by Flow Laboratories Inc., U.S.A.) supplemented with 30% fetal calf serum, placed in Petri's dish, diameter 20 mm at a temperature of 37° C.
The numbers of human lymphoblastoid cells were counted according to the method used for counting the numbers of leucocyte with Burke's blood count platelet.

[3] = 15° C, parts or percentages by weight

Row | solubility [1, 3] | water solubility, in words ([1]; temperature not stated) | water solubility [1, 3] | Compound | inhibiting action on the growth of human lymphoblastoid cells [2]
1 | ~5000 µg/mL (≈ 8410 µM) |  |  | COc1cc(O[C@@H]2O[C@H](CO)[C@@H](O)[C@H](O)[C@H]2O)ccc1/C=C/C(=O)c1ccc(O[C@@H]2O[C@H](CO)[C@@H](O)[C@H](O)[C@H]2O)cc1 [echinatin-4,4'-diglucoside] | 
2 | ~1000 µg/mL (≈ 2310 µM) |  |  | COc1cc(O[C@@H]2O[C@H](CO)[C@@H](O)[C@H](O)[C@H]2O)ccc1/C=C/C(=O)c1ccc(O)cc1 [echinatin-4-glucoside] | 
3 | < 1 µg/mL | extremely low water solubility |  | COc1cc(O)ccc1/C=C/C(=O)c1ccc(O)cc1 [echinatin] | 
4 |  |  | approximately 1% | echinatin-4'-glucoside | possesses an inhibiting action on the growth of human lymphoblastoid cells
